Test results from the supplement of paper PMC11208160.

Assay: recombinant UMI read abundance after kanamycin selection (control-corrected) (log10(CPM+1)); higher = more efficient recombination; extreme values may be limits of the assay; sequences stand for … in AGTGCAGAGAAAATCGGCCAGTTTTCTCTGCCTGCAGTCCGCATGCCGTGGGACCCCTTGGGTTCTAACCTGTTGCCTAGATTTATGCAGCGGACTGCCTTTCTCCCAAAGTGATAAACCGG…AGGTTGGTTTCACT; site = the 11-nt donor
How it was run: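 Counts of recombinant UMIs were reported as log10(CPM+1). Before that, they were converted to CPM, averaged over replicates and scaled using control-derived factors. They came from PCR across the donor–target junction after Escherichia coli carrying the pair library and target plasmid was plated on IPTG (0.07 mM) plus kanamycin, or unselected, in two replicates each.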
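Note: IS621 bridge recombinase in Escherichia coli cells against a fixed T5 target plasmid.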

| Sequence | recombinant UMI read abundance (log10) |
| --- | --- |
| GTATGCACATGGACCGGTTTTCCCGGTAATCCGTATTTGTA (site GTCTGCACTTA) | 0.0377 |
| GTATGCACATGGACCGGTTTTCCCGGTAATCCGTATTTGTA (site GTGTGCACTTA) | 0.384 |
| GTATGCACATGGACCGGTTTTCCCGGTAATCCGTATTTGTA (site GTTTGCACTTA) | 0 |
| GTATGCACATGGACCGGTTTTCCCGGTAATCCGTATTTGTA (site TTATGCACTTA) | 0.185 |
| GTATGTACATGGACCGGTTTTCCCGGTAATCCGTATTTGTA (site GTATGAACTTA) | 1.74 |
| GTATGTACATGGACCGGTTTTCCCGGTAATCCGTATTTGTA (site GTATGCACTTA) | 1.61 |
| GTATGTACATGGACCGGTTTTCCCGGTAATCCGTATTTGTA (site GTATGGACTTA) | 0.499 |
| GTATGTACATGGACCGGTTTTCCCGGTAATCCGTATTTGTA (site GTATGTACTTA) | 2.09 |
| GTATGTCCATGGACCGGTTTTCCCGGTAATCCGTATTTGAG (site GTATGTCCTCT) | 0.428 |
| GTATTAACATGGACCGGTTTTCCCGGTAATCCGTATTTGTG (site GTATTAACTCA) | 2.02 |
| GTCACGCCATGGACCGGTTTTCCCGGTAATCCGTATTTGTA (site GACACGCCTTA) | 0.00466 |
| GTCACGCCATGGACCGGTTTTCCCGGTAATCCGTATTTGTA (site GCCACGCCTTA) | 0 |
| GTCACGCCATGGACCGGTTTTCCCGGTAATCCGTATTTGTA (site GGCACGCCTTA) | 0.00905 |
| GTCACGCCATGGACCGGTTTTCCCGGTAATCCGTATTTGTA (site GTCACGCCTTA) | 0.476 |
| GTCACGGCATGGACCGGTTTTCCCGGTAATCCGTATTTGAA (site GTCACGGCTTT) | 1.2 |
| GTCACGTCATGGACCGGTTTTCCCGGTAATCCGTATTTGCG (site GTCACGTCTCG) | 2.07 |
| GTCAGGACATGGACCGGTTTTCCCGGTAATCCGTATTTGTC (site GTCAGGACTGA) | 2.38 |
| GTCATGGCATGGACCGGTTTTCCCGGTAATCCGTATTTGAA (site GTCATGGCTTT) | 1.99 |
| GTCCCATCATGGACCGGTTTTCCCGGTAATCCGTATTTGCG (site GTCCCATCTCG) | 1.31 |
| GTCCCCACATGGACCGGTTTTCCCGGTAATCCGTATTTGTA (site GTCCCCACTTA) | 1.14 |
| GTCCGACCATGGACCGGTTTTCCCGGTAATCCGTATTTGCA (site GTCCGACCTTG) | 0 |
| GTCCGAGCATGGACCGGTTTTCCCGGTAATCCGTATTTGCA (site GTACGAGCTTG) | 0 |
| GTCCGAGCATGGACCGGTTTTCCCGGTAATCCGTATTTGCA (site GTCCGAGCTTG) | 1.59 |
| GTCCGAGCATGGACCGGTTTTCCCGGTAATCCGTATTTGCA (site GTGCGAGCTTG) | 0.297 |
| GTCCGAGCATGGACCGGTTTTCCCGGTAATCCGTATTTGCA (site GTTCGAGCTTG) | 0 |

| Sequence | recombinant UMI read abundance (log10) |
| --- | --- |
| GTCCTGCCATGGACCGGTTTTCCCGGTAATCCGTATTTGGC (site GTCCTGCCTGC) | 0 |
| GTCGAATCATGGACCGGTTTTCCCGGTAATCCGTATTTGGT (site GTCGAATCTAC) | 2.07 |
| GTCGCCCCATGGACCGGTTTTCCCGGTAATCCGTATTTGGC (site GTCGCCCCTGC) | 0 |
| GTCGCGTCATGGACCGGTTTTCCCGGTAATCCGTATTTGGA (site GTCGCGTCTTC) | 1.24 |
| GTCGGCCCATGGACCGGTTTTCCCGGTAATCCGTATTTGTG (site GTCGGCCCTCA) | 0.00361 |
| GTCGGGGCATGGACCGGTTTTCCCGGTAATCCGTATTTGTT (site GTCGGGGCTAA) | 0.949 |
| GTCGTATCATGGACCGGTTTTCCCGGTAATCCGTATTTGTC (site GTCGTATCTGA) | 2.7 |
| GTCTAACCATGGACCGGTTTTCCCGGTAATCCGTATTTGTC (site GTCTAACCTGA) | 0 |
| GTCTACACATGGACCGGTTTTCCCGGTAATCCGTATTTGAG (site GTCTACACTCT) | 0.832 |
| GTCTACACATGGACCGGTTTTCCCGGTAATCCGTATTTGCT (site ATCTACACTAG) | 1.33 |
| GTCTACACATGGACCGGTTTTCCCGGTAATCCGTATTTGCT (site CTCTACACTAG) | 1.44 |
| GTCTACACATGGACCGGTTTTCCCGGTAATCCGTATTTGCT (site GTCTACACTAG) | 2.05 |
| GTCTACACATGGACCGGTTTTCCCGGTAATCCGTATTTGCT (site TTCTACACTAG) | 1.44 |
| GTCTAGACATGGACCGGTTTTCCCGGTAATCCGTATTTGCA (site GTCTAGACTTG) | 2.13 |
| GTCTGCCCATGGACCGGTTTTCCCGGTAATCCGTATTTGCG (site GTCTGCCCTCG) | 0.0315 |
| GTCTTCCCATGGACCGGTTTTCCCGGTAATCCGTATTTGCA (site GTCTTCCCTTG) | 0 |
| GTGAAGACATGGACCGGTTTTCCCGGTAATCCGTATTTGCA (site AGGAAGACTTG) | 1.26 |
| GTGAAGACATGGACCGGTTTTCCCGGTAATCCGTATTTGCA (site GTGAAGACTTG) | 2.72 |
| GTGACAACATGGACCGGTTTTCCCGGTAATCCGTATTTGAC (site GTGACAACTGT) | 2.91 |
| GTGACACCATGGACCGGTTTTCCCGGTAATCCGTATTTGTT (site GTGACACCTAA) | 0.00775 |
| GTGACCCCATGGACCGGTTTTCCCGGTAATCCGTATTTGCC (site GTGACCCCTGG) | 1.83 |
| GTGCAAACATGGACCGGTTTTCCCGGTAATCCGTATTTGTG (site GTGCAAACTCA) | 2.04 |
| GTGCATCCATGGACCGGTTTTCCCGGTAATCCGTATTTGCA (site GTGCATCCTTG) | 1.03 |
| GTGCATGCATGGACCGGTTTTCCCGGTAATCCGTATTTGGA (site GTGCATGCTAC) | 0.00401 |
| GTGCATGCATGGACCGGTTTTCCCGGTAATCCGTATTTGGA (site GTGCATGCTCC) | 0.296 |

| Sequence | recombinant UMI read abundance (log10) |
| --- | --- |
| GTGCATGCATGGACCGGTTTTCCCGGTAATCCGTATTTGGA (site GTGCATGCTGC) | 0 |
| GTGCATGCATGGACCGGTTTTCCCGGTAATCCGTATTTGGA (site GTGCATGCTTC) | 1.28 |
| GTGCATGCATGGACCGGTTTTCCCGGTAATCCGTATTTGGC (site GTGCATGCTAC) | 0.31 |
| GTGCATGCATGGACCGGTTTTCCCGGTAATCCGTATTTGGC (site GTGCATGCTCC) | 0 |
| GTGCATGCATGGACCGGTTTTCCCGGTAATCCGTATTTGGC (site GTGCATGCTGC) | 2.28 |
| GTGCATGCATGGACCGGTTTTCCCGGTAATCCGTATTTGGC (site GTGCATGCTTC) | 0.89 |
| GTGCATGCATGGACCGGTTTTCCCGGTAATCCGTATTTGGT (site ATGCATGCTAC) | 0.986 |
| GTGCATGCATGGACCGGTTTTCCCGGTAATCCGTATTTGGT (site CTGCATGCTAC) | 0.457 |
| GTGCATGCATGGACCGGTTTTCCCGGTAATCCGTATTTGGT (site GAGCATGCTAC) | 0.0372 |
| GTGCATGCATGGACCGGTTTTCCCGGTAATCCGTATTTGGT (site GCGCATGCTAC) | 0.271 |
| GTGCATGCATGGACCGGTTTTCCCGGTAATCCGTATTTGGT (site GGGCATGCTAC) | 0.00487 |
| GTGCATGCATGGACCGGTTTTCCCGGTAATCCGTATTTGGT (site GTACATGCTAC) | 1.47 |
| GTGCATGCATGGACCGGTTTTCCCGGTAATCCGTATTTGGT (site GTCCATGCTAC) | 0.00812 |
| GTGCATGCATGGACCGGTTTTCCCGGTAATCCGTATTTGGT (site GTGAATGCTAC) | 0 |
| GTGCATGCATGGACCGGTTTTCCCGGTAATCCGTATTTGGT (site GTGCAAGCTAC) | 0.00542 |
| GTGCATGCATGGACCGGTTTTCCCGGTAATCCGTATTTGGT (site GTGCACGCTAC) | 0.586 |
| GTGCATGCATGGACCGGTTTTCCCGGTAATCCGTATTTGGT (site GTGCAGGCTAC) | 0.384 |
| GTGCATGCATGGACCGGTTTTCCCGGTAATCCGTATTTGGT (site GTGCATACTAC) | 1.69 |
| GTGCATGCATGGACCGGTTTTCCCGGTAATCCGTATTTGGT (site GTGCATCCTAC) | 0.318 |
| GTGCATGCATGGACCGGTTTTCCCGGTAATCCGTATTTGGT (site GTGCATGCTAA) | 0.0107 |
| GTGCATGCATGGACCGGTTTTCCCGGTAATCCGTATTTGGT (site GTGCATGCTAC) | 0.978 |
| GTGCATGCATGGACCGGTTTTCCCGGTAATCCGTATTTGGT (site GTGCATGCTAG) | 0.442 |
| GTGCATGCATGGACCGGTTTTCCCGGTAATCCGTATTTGGT (site GTGCATGCTAT) | 1.47 |
| GTGCATGCATGGACCGGTTTTCCCGGTAATCCGTATTTGGT (site GTGCATGCTCC) | 0.0111 |
| GTGCATGCATGGACCGGTTTTCCCGGTAATCCGTATTTGGT (site GTGCATGCTGC) | 0.451 |
